In ChEMBL document CHEMBL6092158, “Green synthesis of neuroprotective spirocyclic chalcone derivatives and their role in protecting against traumatic optic nerve injury” (Eur J Med Chem, 2024):
Calls of active or inactive are those of the source. The calls are words filed in the database; no cut-off is given here.

Columns and labels:
R28 [1] = experiment: Cytoprotective activity against glutamate-induced cytotoxicity in rat R28 cells assessed as increase in cell viability at 10 uM incubated for 24 hrs in presence of glutamate by MTT assay; assay type: functional, cell-based
R28 [2] = experiment: Cytoprotective activity against hydrogen peroxide-induced cytotoxicity in rat R28 cells assessed as increase in cell viability at 10 uM preincubated for 24 hrs followed by incubation with H2O2 for 24 hrs by MTT assay; assay type: functional, cell-based
[3] = Acute toxicity in C57BL/6J mouse assessed as heart damage at 500 mg/kg, ip and measured on day 14 by Hematoxylin-Eosin staining based analysis; assay type: organism-based; conditions: in vivo, 336 h, time 14 day
Mus musculus [4] = experiment: Neuroprotective activity against optic nerve crush C57BL/6J mouse model at 1 ug/ul administered into vitreous cavity immediately after ONC surgery and measured on day 7 post-surgery by optical coherence examination analysis; assay type: functional, organism-based; conditions: dose 1.0 µg/microL, route ivt, time 7.0 day
[5] = Cytotoxicity against rat R28 cells assessed as effect on cell viability by MTT assay; assay type: toxicity, cell-based
R28 [6] = experiment: Cytoprotective activity against oxidative glutamate-induced cytotoxicity in rat R28 cells assessed as increase in cell viability at 1.25 to 2.5 uM incubated for 24 hrs by MTT assay; assay type: functional, cell-based; conditions: dose 1.25-2.5 µM
Cortical neurone [7] = experiment: Cytoprotective activity against oxidative glutamate-induced cytotoxicity in rat primary cortical neuronal cells assessed as increase in cell viability at 1.25 uM incubated for 24 hrs by CCK8 assay; assay type: functional, cell-based
R28 [8] = experiment: Inhibition of glutamate-induced apoptosis in rat R28 cells assessed as decrease in number of PI-positive cells at 5 uM incubated for 24 hrs by Hoechst33342/PI staining based fluorescence microscopic analysis; assay type: functional, cell-based
[9] = Inhibition of glutamate-induced apoptosis in rat R28 cells assessed as viable cells incubated for 24 hrs by AnnexinV-FITC/PI staining based flow cytometry (reference value: 28.81%); assay type: functional
[10] = Inhibition of glutamate-induced apoptosis in rat R28 cells assessed as early apoptotic cells incubated for 24 hrs by AnnexinV-FITC/PI staining based flow cytometry (reference value: 69.04%); assay type: functional; set-up: scale not given: the % may be the effect or the level left
[11] = Inhibition of glutamate-induced apoptosis in rat R28 cells assessed as late apoptotic cells incubated for 24 hrs by AnnexinV-FITC/PI staining based flow cytometry (reference value: 3.47%); assay type: functional; set-up: scale not given: the % may be the effect or the level left
[12] = Inhibition of glutamate-induced apoptosis in rat R28 cells assessed as necrotic cells incubated for 24 hrs by AnnexinV-FITC/PI staining based flow cytometry (reference value: 0.68%); assay type: functional; set-up: scale not given: the % may be the effect or the level left
[13] = Induction of apoptosis in rat R28 cells assessed as viable cells incubated for 24 hrs by AnnexinV-FITC/PI staining based flow cytometry (reference value: 91.34%); assay type: toxicity, cell-based; conditions: read-out: Activity
[14] = Induction of apoptosis in rat R28 cells assessed as early apoptotic cells incubated for 24 hrs by AnnexinV-FITC/PI staining based flow cytometry (reference value: 1.53%); assay type: toxicity, cell-based; conditions: r28, 24 h
[15] = Induction of apoptosis in rat R28 cells assessed as late apoptotic cells incubated for 24 hrs by AnnexinV-FITC/PI staining based flow cytometry (reference value: 4.59%); assay type: toxicity, cell-based; conditions: r28, 24 h
[16] = Induction of apoptosis in rat R28 cells assessed as necrotic cells incubated for 24 hrs by AnnexinV-FITC/PI staining based flow cytometry (reference value: 2.54%); assay type: toxicity, cell-based; conditions: r28, 24 h
Mus musculus [17] = experiment: Neuroprotective activity against optic nerve crush C57BL/6J mouse model assessed as increase in retinal nerve fibre layer thickness complex at 1 ug/ul administered into vitreous cavity immediately after ONC surgery and measured on day 7 post-surgery by optical coherence examination analysis; assay type: functional, organism-based; conditions: dose 1.0 µg/microL, route ivt, time 7.0 day
Mus musculus [18] = experiment: Neuroprotective activity against optic nerve crush C57BL/6J mouse model assessed as increase in ganglion cell layer complex at 1 ug/ul administered into vitreous cavity immediately after ONC surgery and measured on day 7 post-surgery by optical coherence examination analysis; assay type: functional, organism-based; conditions: dose 1.0 µg/microL, route ivt, time 7.0 day
Mus musculus [19] = experiment: Neuroprotective activity against optic nerve crush C57BL/6J mouse model assessed as increase in inner plexiform layer complex at 1 ug/ul administered into vitreous cavity immediately after ONC surgery and measured on day 7 post-surgery by optical coherence examination analysis; assay type: functional, organism-based; conditions: dose 1.0 µg/microL, route ivt, time 7.0 day
Mus musculus [20] = experiment: Neuroprotective activity against optic nerve crush C57BL/6J mouse model assessed as increase in P1-N2 wave amplitude of optic nerve at 1 ug/ul administered into vitreous cavity immediately after ONC surgery and measured on day 7 post-surgery by F-EVP based electrophysiological analysis; assay type: functional, organism-based; conditions: dose 1.0 µg/microL, route ivt, time 7.0 day
Mus musculus [21] = experiment: Neuroprotective activity against optic nerve crush C57BL/6J mouse model assessed as restoration of P1 latency of optic nerve at 1 ug/ul administered into vitreous cavity immediately after ONC surgery and measured on day 7 post-surgery by […] based electrophysiological analysis; assay type: functional, organism-based; conditions: dose 1.0 µg/microL, route ivt, time 7.0 day
R28 [22] = experiment: Antioxidant activity in rat R28 cells assessed as inhibition of glutamate-induced reactive oxygen species generation by measuring decrease in fluorescence intensity at 5 uM incubated for 24 hrs by DCFH-DA staining based immunofluorescence analysis; assay type: functional, cell-based
[23] = Antioxidant activity assessed as DPPH radical scavenging activity at 20 uM by DPPH assay; assay type: functional
[24] = Antioxidant activity assessed as DPPH radical scavenging activity at 100 uM by DPPH assay; assay type: functional
R28 [25] = experiment: Antioxidant activity in rat R28 cells assessed as inhibition of glutamate-induced oxidative stress by measuring decrease in intracellular MDA level; assay type: functional, cell-based
[26] = Antioxidant activity in rat R28 cells assessed as inhibition of glutamate-induced reactive oxygen species generation at 5 uM incubated for 24 hrs by DCFH-DA staining based flow cytometry (reference value: 16.61%); assay type: functional; set-up: scale not given: the % may be the effect or the level left
[27] = Effect on reactive oxygen species generation in rat R28 cells at 5 uM incubated for 24 hrs by DCFH-DA staining based flow cytometry (reference value: 0.49%); assay type: toxicity, cell-based; conditions: r28, 24 h
Cortical neurone [28] = experiment: Antioxidant activity in rat primary cortical neuron assessed as inhibition of glutamate-induced reactive oxygen species generation at 5 uM incubated for 24 hrs by DCFH-DA staining based immunofluorescence analysis; assay type: functional, cell-based
Mus musculus [29] = experiment: Inhibition of glutamate-induced JNK phosphorylation in retinal tissue of optic nerve crush C57BL/6J mouse model at 1 ug/ul administered into vitreous cavity immediately after ONC surgery and measured on day 7 post-surgery by western blot analysis; assay type: functional; conditions: dose 1.0 µg/microL, route ivt, time 7.0 day
Mus musculus [30] = experiment: Effect on total JNK level in retinal tissue of optic nerve crush C57BL/6J mouse model at 1 ug/ul administered into vitreous cavity immediately after ONC surgery and measured on day 7 post-surgery by western blot analysis; assay type: functional; conditions: dose 1.0 µg/microL, route ivt, time 7.0 day
[31] = Acute toxicity in C57BL/6J mouse assessed as animal activity level at 500 mg/kg, ip; assay type: organism-based; conditions: in vivo
[32] = Acute toxicity in C57BL/6J mouse assessed as body weight at 500 mg/kg, ip measured for 14 days; assay type: organism-based; conditions: in vivo, 336 h, time 14 day
[33] = Acute toxicity in C57BL/6J mouse assessed as heart weight at 500 mg/kg, ip and measured on day 14; assay type: organism-based; conditions: in vivo, 336 h, time 14 day
[34] = Acute toxicity in C57BL/6J mouse assessed as liver weight at 500 mg/kg, ip and measured on day 14; assay type: organism-based; conditions: in vivo, 336 h, time 14 day
[35] = Acute toxicity in C57BL/6J mouse assessed as spleen weight at 500 mg/kg, ip and measured on day 14; assay type: organism-based; conditions: in vivo, 336 h, time 14 day
[36] = Acute toxicity in C57BL/6J mouse assessed as lungs weight at 500 mg/kg, ip and measured on day 14; assay type: organism-based; conditions: in vivo, 336 h, time 14 day
[37] = Acute toxicity in C57BL/6J mouse assessed as kidney weight at 500 mg/kg, ip and measured on day 14; assay type: organism-based; conditions: in vivo, 336 h, time 14 day
[38] = Acute toxicity in C57BL/6J mouse assessed as ALT level in serum at 500 mg/kg, ip and measured on day 14; assay type: organism-based; conditions: in vivo, 336 h, time 14 day
[39] = Acute toxicity in C57BL/6J mouse assessed as AST level in serum at 500 mg/kg, ip and measured on day 14; assay type: organism-based; conditions: in vivo, 336 h, time 14 day
[40] = Acute toxicity in C57BL/6J mouse assessed as liver damage at 500 mg/kg, ip and measured on day 14 by Hematoxylin-Eosin staining based analysis; assay type: organism-based; conditions: in vivo, 336 h, time 14 day
[41] = Acute toxicity in C57BL/6J mouse assessed as spleen damage at 500 mg/kg, ip and measured on day 14 by Hematoxylin-Eosin staining based analysis; assay type: organism-based; conditions: in vivo, 336 h, time 14 day
[42] = Acute toxicity in C57BL/6J mouse assessed as lung damage at 500 mg/kg, ip and measured on day 14 by Hematoxylin-Eosin staining based analysis; assay type: organism-based; conditions: in vivo, 336 h, time 14 day
[43] = Acute toxicity in C57BL/6J mouse assessed as kidney damage at 500 mg/kg, ip and measured on day 14 by Hematoxylin-Eosin staining based analysis; assay type: organism-based; conditions: in vivo, 336 h, time 14 day
[44] = Acute toxicity in C57BL/6J mouse assessed as retinal damage at 500 mg/kg, ip and measured on day 14 by Hematoxylin-Eosin staining based analysis; assay type: organism-based; conditions: in vivo, 336 h, time 14 day

COc1ccc(C(=O)[C@@H]2[C@@H](c3ccc(O)c(O)c3)CN(C)[C@@]23C(=O)Nc2ccccc23)cc1
Activity (R28 [1]): Active | Activity (R28 [2]): Active

CN1C[C@H](c2ccc(O)c(O)c2)[C@@H](C(=O)c2cc(F)cc(F)c2)[C@]12C(=O)Nc1ccccc12
Activity (R28 [1]): Active | Activity (R28 [2]): Active | Activity [3]: Non-toxic | Activity (Mus musculus [4]): Active | Activity [5]: Toxic | Activity (R28 [6]): Active | Activity (Cortical neurone [7]): Active | inhibition (R28 [8]): Active | Activity [9]: 89.77% | Activity [10]: 1.63% | Activity [11]: 6.05% | Activity [12]: 2.54% | viability at 24 h [13]: 87.5% | Activity [14]: 1.94% | Activity [15]: 8.4% | Activity [16]: 2.13% | Activity (Mus musculus [17]): Active | Activity (Mus musculus [18]): Active | Activity (Mus musculus [19]): Active | Activity (Mus musculus [20]): Active | Activity (Mus musculus [21]): Active | Activity (R28 [22]): Active | Activity [23]: Active | inhibition [24]: 95% | Activity (R28 [25]): Active | Activity [26]: 4.62% | Activity [27]: 2.05% | Activity (Cortical neurone [28]): Active | inhibition (Mus musculus [29]): Active | Activity (Mus musculus [30]): inactive | Activity [31]: Non-toxic | Activity [32]: Non-toxic | Activity [33]: Non-toxic | Activity [34]: Non-toxic | Activity [35]: Non-toxic | Activity [36]: Non-toxic | Activity [37]: Non-toxic | Activity [38]: Non-toxic | Activity [39]: Non-toxic | Activity [40]: Non-toxic | Activity [41]: Non-toxic | Activity [42]: Non-toxic | Activity [43]: Non-toxic | Activity [44]: Non-toxic

CN1C[C@H](c2ccc(O)c(O)c2)[C@@H](C(=O)c2ccc(O)cc2)[C@]12C(=O)Nc1ccccc12
Activity (R28 [1]): Active | Activity (R28 [2]): Active

CN1C[C@H](c2ccc(O)c(O)c2)[C@@H](C(=O)c2cccc(Br)c2)[C@]12C(=O)Nc1ccccc12
Activity (R28 [1]): Active | Activity (R28 [2]): Active

CN1C[C@H](c2ccc(O)c(O)c2)[C@@H](C(=O)c2ccc(F)cc2)[C@]12C(=O)Nc1ccccc12
Activity (R28 [1]): Active | Activity (R28 [2]): Active

CN1C[C@H](c2ccc(O)c(O)c2)[C@@H](C(=O)c2cc(C(F)(F)F)cc(C(F)(F)F)c2)[C@]12C(=O)Nc1ccccc12
Activity (R28 [1]): inactive | Activity (R28 [2]): inactive

CN1C[C@H](c2ccc(O)c(O)c2)[C@@H](C(=O)c2ccc(Br)cc2F)[C@]12C(=O)Nc1ccccc12
Activity (R28 [1]): Active | Activity (R28 [2]): Active

CN1C[C@H](c2ccc(O)c(O)c2)[C@@H](C(=O)c2ccc(OC(F)(F)F)cc2)[C@]12C(=O)Nc1ccccc12
Activity (R28 [1]): Active | Activity (R28 [2]): Active

CN1C[C@H](c2ccc(O)c(O)c2)[C@@H](C(=O)c2ccccc2)[C@]12C(=O)Nc1ccccc12
Activity (R28 [1]): Active | Activity (R28 [2]): Active

CN1C[C@H](c2ccc(O)c(O)c2)[C@@H](C(=O)c2cccc(Cl)c2)[C@]12C(=O)Nc1ccccc12
Activity (R28 [1]): Active | Activity (R28 [2]): Active

COc1cc(C(=O)[C@@H]2[C@@H](c3ccc(O)c(O)c3)CN(C)[C@@]23C(=O)Nc2ccccc23)cc(OC)c1OC
Activity (R28 [1]): Active | Activity (R28 [2]): Active

CN1C[C@H](c2ccc(O)c(O)c2)[C@@H](C(=O)c2cccc(F)c2)[C@]12C(=O)Nc1ccccc12
Activity (R28 [1]): Active | Activity (R28 [2]): Active
